Test [1] deals with T1, acyl-coenzyme A:cholesterol acyltransferase 1 (ACAT1) (Homo sapiens, UniProt P35610).
T1 sequence (P35610 1-550): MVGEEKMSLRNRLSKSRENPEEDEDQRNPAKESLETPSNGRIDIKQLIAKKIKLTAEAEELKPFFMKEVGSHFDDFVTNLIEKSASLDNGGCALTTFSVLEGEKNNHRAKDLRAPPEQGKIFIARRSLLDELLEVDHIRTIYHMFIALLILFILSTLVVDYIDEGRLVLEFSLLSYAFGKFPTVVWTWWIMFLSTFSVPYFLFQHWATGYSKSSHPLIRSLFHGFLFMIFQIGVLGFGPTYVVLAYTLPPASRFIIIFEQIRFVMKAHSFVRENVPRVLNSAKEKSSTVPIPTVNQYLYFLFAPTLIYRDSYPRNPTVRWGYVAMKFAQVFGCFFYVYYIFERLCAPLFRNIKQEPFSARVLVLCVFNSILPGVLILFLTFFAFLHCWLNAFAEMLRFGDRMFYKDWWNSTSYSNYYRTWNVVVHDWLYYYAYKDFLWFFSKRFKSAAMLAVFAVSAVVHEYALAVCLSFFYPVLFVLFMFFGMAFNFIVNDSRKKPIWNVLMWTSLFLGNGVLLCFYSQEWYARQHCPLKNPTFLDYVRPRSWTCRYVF
Nature of the test: [3H]oleate incorporation into cholesteryl oleate in CHO-ACAT1 cells. It is filed as cell-based.

Test [2] addresses T2, acyl-coenzyme A:cholesterol acyltransferase 2 (ACAT2) (Homo sapiens, UniProt O75908).
T2 sequence (O75908 1-522): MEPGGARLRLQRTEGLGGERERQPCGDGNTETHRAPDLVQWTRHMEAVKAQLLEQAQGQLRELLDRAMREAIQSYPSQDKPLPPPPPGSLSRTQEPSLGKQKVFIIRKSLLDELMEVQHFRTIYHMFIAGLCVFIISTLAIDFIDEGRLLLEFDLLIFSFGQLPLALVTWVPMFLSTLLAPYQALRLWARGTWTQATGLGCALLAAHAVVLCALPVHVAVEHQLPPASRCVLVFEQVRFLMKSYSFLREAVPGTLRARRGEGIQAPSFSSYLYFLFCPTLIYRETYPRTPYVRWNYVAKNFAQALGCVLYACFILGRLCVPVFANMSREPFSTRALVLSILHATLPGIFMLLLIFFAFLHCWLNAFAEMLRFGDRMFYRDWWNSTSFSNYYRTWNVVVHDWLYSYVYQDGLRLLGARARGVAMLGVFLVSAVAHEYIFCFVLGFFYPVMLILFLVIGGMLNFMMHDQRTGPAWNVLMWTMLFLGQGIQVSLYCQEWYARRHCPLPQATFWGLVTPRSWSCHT
The test can be described thus: [3H]oleate incorporation into cholesteryl oleate in CHO-ACAT2 cells. It is filed as cell-based.

In general, IC50 refers to the concentration needed to halve the response being measured. Lower therefore signals greater potency. As to `Cc1c(C(=O)NN2CCCCC2)nn(-c2ccc(Cl)cc2Cl)c1-c1ccc(Cl)cc1` [Rimonabant], the IC50 in test [1] came to 1500 ± 1200 nM; in test [2], 2200 ± 1100 nM.

Values taken from PMC2918681 (Biochemical and biophysical research communications, 2010).
